Assay: Safety (adverse events, NCI CTCAE v4.0), dose-escalation phase
[1] = dose-escalation QD × 5dQW 7–13 mg
[2] = dose-escalation Total (n = 116)

Protocol: Patients who received ≥1 dose of sapanisertib were included in the safety population. […] Adverse events (AEs) were assessed using the National Cancer Institute Common Terminology Criteria for Adverse Events, v4.0. Patients were provided with a home blood-glucose meter to monitor their fasting predose blood-glucose measurements to assess hyperglycaemia as an on-target AE and PD marker.

With CC(C)n1nc(-c2ccc3oc(N)nc3c2)c2c(N)ncnc21 [Sapanisertib] the “Fatigue, treatment-related grade ≥3 AE” value [1] was 2 (9) n (%), the “Headache, treatment-related AE” value [1] was 1 (5) n (%) and the “Hypercholesterolemia, treatment-related AE” value [1] was 1 (5) n (%). For the same molecule, the “Hyperglycaemia, treatment-related AE” value [1] was 11 (50) n (%), the “Hyperglycaemia, treatment-related grade ≥3 AE” value [1] was 1 (5) n (%) and the “Hypophosphatemia, treatment-related AE” value [1] was 2 (9) n (%). The “Hypophosphatemia, treatment-related grade ≥3 AE” value [1] was 0 (0) n (%), the “Lymphopenia, treatment-related grade ≥3 AE” value [1] was 0 (0) n (%) and the “Nausea, treatment-related AE” value [1] was 13 (59) n (%). The “Nausea, treatment-related grade ≥3 AE” value [1] was 1 (5) n (%), the On-study deaths [1] was 0 n (%) and the “Pruritus generalised, treatment-related AE” value [1] was 1 (5) n (%). For the same molecule, the “Pruritus generalised, treatment-related grade ≥3 AE” value [1] was 0 (0) n (%), the “Pruritus, treatment-related AE” value [1] was 3 (14) n (%) and the “Rash maculo-papular, treatment-related AE” value [1] was 2 (9) n (%). For the same molecule, the “Rash maculo-papular, treatment-related grade ≥3 AE” value [1] was 1 (5) n (%), the “Rash, treatment-related AE” value [1] was 3 (14) n (%) and the “Rash, treatment-related grade ≥3 AE” value [1] was 0 (0) n (%). For the same molecule, the “Stomatitis (includes oropharyngeal pain and mucosal inflammation), treatment-related AE” value (“Stomatitis … treatment-related AE” below) [1] was 13 (59) n (%), the “Stomatitis, treatment-related grade ≥3 AE” value [1] was 3 (14) n (%) and the “Thrombocytopenia, treatment-related grade ≥3 AE” value [1] was 0 (0) n (%). The “Vomiting, treatment-related AE” value [1] was 10 (45) n (%), the “Weight decreased, treatment-related AE” value [1] was 2 (9) n (%) and the “Acute kidney injury, treatment-related AE” value (dose-escalation QW 7–40 mg) was 0 (0) n (%). For the same molecule, the “Anaemia, treatment-related AE” value (dose-escalation QW 7–40 mg) was 1 (3) n (%), the “Any AE” value (dose-escalation QW 7–40 mg) was 30 (100) n (%) and the “Any AE resulting in dose modification/interruption” value (dose-escalation QW 7–40 mg) was 13 (43) n (%). The “Any AE resulting in treatment discontinuation” value (dose-escalation QW 7–40 mg) was 4 (13) n (%), the “Any SAE” value (dose-escalation QW 7–40 mg) was 10 (33) n (%) and the “Any grade ≥3 AE” value (dose-escalation QW 7–40 mg) was 18 (60) n (%). The “Any treatment-related AE” value (dose-escalation QW 7–40 mg) was 28 (93) n (%), the “Any treatment-related SAE” value (dose-escalation QW 7–40 mg) was 0 n (%) and the “Any treatment-related grade ≥3 AE” value (dose-escalation QW 7–40 mg) was 8 (27) n (%). For the same molecule, the “Asthenia, treatment-related AE” value (dose-escalation QW 7–40 mg) was 12 (40) n (%), the “Asthenia, treatment-related grade ≥3 AE” value (dose-escalation QW 7–40 mg) was 1 (3) n (%) and the “Blood creatinine increased, treatment-related AE” value (dose-escalation QW 7–40 mg) was 3 (10) n (%). The “Decreased appetite, treatment-related AE” value (dose-escalation QW 7–40 mg) was 8 (27) n (%), the “Dehydration, treatment-related AE” value (dose-escalation QW 7–40 mg) was 1 (3) n (%) and the “Dehydration, treatment-related grade ≥3 AE” value (dose-escalation QW 7–40 mg) was 0 (0) n (%). For the same molecule, the “Diarrhoea, treatment-related AE” value (dose-escalation QW 7–40 mg) was 9 (30) n (%), the “Diarrhoea, treatment-related grade ≥3 AE” value (dose-escalation QW 7–40 mg) was 1 (3) n (%) and the “Dry mouth, treatment-related AE” value (dose-escalation QW 7–40 mg) was 3 (10) n (%). For the same molecule, the “Dysgeusia, treatment-related AE” value (dose-escalation QW 7–40 mg) was 3 (10) n (%), the “Dyspepsia, treatment-related AE” value (dose-escalation QW 7–40 mg) was 1 (3) n (%) and the “Fatigue, treatment-related AE” value (dose-escalation QW 7–40 mg) was 8 (27) n (%). For the same molecule, the “Fatigue, treatment-related grade ≥3 AE” value (dose-escalation QW 7–40 mg) was 2 (7) n (%), the “Headache, treatment-related AE” value (dose-escalation QW 7–40 mg) was 2 (7) n (%) and the “Hypercholesterolemia, treatment-related AE” value (dose-escalation QW 7–40 mg) was 1 (3) n (%). For the same molecule, the “Hyperglycaemia, treatment-related AE” value (dose-escalation QW 7–40 mg) was 17 (57) n (%), the “Hyperglycaemia, treatment-related grade ≥3 AE” value (dose-escalation QW 7–40 mg) was 2 (7) n (%) and the “Hypophosphatemia, treatment-related AE” value (dose-escalation QW 7–40 mg) was 0 (0) n (%). The “Hypophosphatemia, treatment-related grade ≥3 AE” value (dose-escalation QW 7–40 mg) was 0 (0) n (%), the “Lymphopenia, treatment-related grade ≥3 AE” value (dose-escalation QW 7–40 mg) was 1 (3) n (%) and the “Nausea, treatment-related AE” value (dose-escalation QW 7–40 mg) was 22 (73) n (%). For the same molecule, the “Nausea, treatment-related grade ≥3 AE” value (dose-escalation QW 7–40 mg) was 0 (0) n (%), the On-study deaths (dose-escalation QW 7–40 mg) was 1 (3) n (%) and the “Pruritus generalised, treatment-related AE” value (dose-escalation QW 7–40 mg) was 0 (0) n (%). The “Pruritus generalised, treatment-related grade ≥3 AE” value (dose-escalation QW 7–40 mg) was 0 (0) n (%), the “Pruritus, treatment-related AE” value (dose-escalation QW 7–40 mg) was 2 (7) n (%) and the “Rash maculo-papular, treatment-related AE” value (dose-escalation QW 7–40 mg) was 0 (0) n (%). The “Rash maculo-papular, treatment-related grade ≥3 AE” value (dose-escalation QW 7–40 mg) was 0 (0) n (%), the “Rash, treatment-related AE” value (dose-escalation QW 7–40 mg) was 2 (7) n (%) and the “Rash, treatment-related grade ≥3 AE” value (dose-escalation QW 7–40 mg) was 0 (0) n (%). For the same molecule, the “Stomatitis … treatment-related AE” value (dose-escalation QW 7–40 mg) was 9 (30) n (%), the “Stomatitis, treatment-related grade ≥3 AE” value (dose-escalation QW 7–40 mg) was 0 (0) n (%) and the “Thrombocytopenia, treatment-related grade ≥3 AE” value (dose-escalation QW 7–40 mg) was 0 (0) n (%). The “Vomiting, treatment-related AE” value (dose-escalation QW 7–40 mg) was 17 (57) n (%), the “Weight decreased, treatment-related AE” value (dose-escalation QW 7–40 mg) was 2 (7) n (%) and the “Acute kidney injury, treatment-related AE” value [2] was 1 (1) n (%). The “Anaemia, treatment-related AE” value [2] was 5 (4) n (%), the “Any AE” value [2] was 116 (100) n (%) and the “Any AE resulting in dose modification/interruption” value [2] was 68 (59) n (%). For the same molecule, the “Any AE resulting in treatment discontinuation” value [2] was 28 (24) n (%), the “Any SAE” value [2] was 50 (43) n (%) and the “Any grade ≥3 AE” value [2] was 76 (66) n (%). The “Any treatment-related AE” value [2] was 112 (97) n (%), the “Any treatment-related SAE” value [2] was 17 (15) n (%) and the “Any treatment-related grade ≥3 AE” value [2] was 49 (42) n (%). The “Asthenia, treatment-related AE” value [2] was 37 (32) n (%), the “Asthenia, treatment-related grade ≥3 AE” value [2] was 9 (8) n (%) and the “Blood creatinine increased, treatment-related AE” value [2] was 12 (10) n (%). For the same molecule, the “Decreased appetite, treatment-related AE” value [2] was 43 (37) n (%), the “Dehydration, treatment-related AE” value [2] was 5 (4) n (%) and the “Dehydration, treatment-related grade ≥3 AE” value [2] was 1 (1) n (%). For the same molecule, the “Diarrhoea, treatment-related AE” value [2] was 41 (35) n (%), the “Diarrhoea, treatment-related grade ≥3 AE” value [2] was 2 (2) n (%) and the “Dry mouth, treatment-related AE” value [2] was 12 (10) n (%). The “Dysgeusia, treatment-related AE” value [2] was 19 (16) n (%), the “Dyspepsia, treatment-related AE” value [2] was 3 (3) n (%) and the “Fatigue, treatment-related AE” value [2] was 35 (30) n (%). For the same molecule, the “Fatigue, treatment-related grade ≥3 AE” value [2] was 4 (3) n (%), the “Headache, treatment-related AE” value [2] was 6 (5) n (%) and the “Hypercholesterolemia, treatment-related AE” value [2] was 11 (9) n (%). The “Hyperglycaemia, treatment-related AE” value [2] was 75 (65) n (%), the “Hyperglycaemia, treatment-related grade ≥3 AE” value [2] was 16 (14) n (%) and the “Hypophosphatemia, treatment-related AE” value [2] was 7 (6) n (%). The “Hypophosphatemia, treatment-related grade ≥3 AE” value [2] was 3 (3) n (%), the “Lymphopenia, treatment-related grade ≥3 AE” value [2] was 5 (4) n (%) and the “Nausea, treatment-related AE” value [2] was 71 (61) n (%). The “Nausea, treatment-related grade ≥3 AE” value [2] was 3 (3) n (%), the On-study deaths [2] was 4 (3) n (%) and the “Pruritus generalised, treatment-related AE” value [2] was 15 (13) n (%). The “Pruritus generalised, treatment-related grade ≥3 AE” value [2] was 3 (3) n (%), the “Pruritus, treatment-related AE” value [2] was 8 (7) n (%) and the “Rash maculo-papular, treatment-related AE” value [2] was 6 (5) n (%). For the same molecule, the “Rash maculo-papular, treatment-related grade ≥3 AE” value [2] was 3 (3) n (%), the “Rash, treatment-related AE” value [2] was 20 (17) n (%) and the “Rash, treatment-related grade ≥3 AE” value [2] was 2 (2) n (%). The “Stomatitis … treatment-related AE” value [2] was 56 (48) n (%), the “Stomatitis, treatment-related grade ≥3 AE” value [2] was 8 (7) n (%) and the “Thrombocytopenia, treatment-related grade ≥3 AE” value [2] was 2 (2) n (%). For the same molecule, the “Vomiting, treatment-related AE” value [2] was 53 (46) n (%) and the “Weight decreased, treatment-related AE” value [2] was 7 (6) n (%).

Source: publication PMC7686313, “Phase 1 study of mTORC1/2 inhibitor sapanisertib (TAK-228) in advanced solid tumours, with an expansion phase in renal, endometrial or bladder cancer” (British Journal of Cancer, 2020)
